Experimental data from article PMC11714206, “Massively Parallel Screening of Toll/Interleukin‐1 Receptor (TIR)‐Derived Peptides Reveals Multiple Toll‐Like Receptors (TLRs)‐Targeting Immunomodulatory Peptides” (Advanced Science, 2024).
One block for each sequence: values may come before it.

Target: T1, MyD88^TIR (Homo sapiens, UniProt Q99836)
T1 construct: MyD88 (residues 148–296); 6xHis; made in house; host or cells: E. coli BL21 (DE3)
Assay: T‐Surf phage library (P8 and P3) selection against MyD88^TIR, four rounds, NGS read counts
Assay type: binding
Conditions: for P8_MyD88 Rank (after) / P8_MyD88 Rank (before): P8 library; for P3_MyD88 Rank (after) / P3_MyD88 Rank (before): P3 library; for Population: P8_MyD88 pool: P8 T-Surf phage library, 4th round of selection against MyD88 TIR, share of NGS reads
How it was run: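 P8 and P3 T‐Surf libraries panned against plate-coated TIR domains (5 µg mL^−1), 1 h binding at RT, acid elution and TG1/helper-phage amplification per round. After four rounds, pools were PCR-barcoded and sequenced (NovaSeq, 100 bp paired-end, Phred ≥30); peptides ranked by read counts.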

[1] = selection against MyD88 TIR, rank by count after grouping
[2] = selection against MyD88 TIR, rank by count before grouping
[3] = selection against MyD88, rank by count after grouping
[4] = selection against MyD88, rank by count before grouping
[5] = P8_MyD88: rank by count after grouping
[6] = P8_MyD88: rank by count before grouping
[7] = 4R selection against MyD88, rank after grouping
[8] = 4R selection against MyD88, rank before grouping
[9] = selection against MyD88, rank after grouping
[10] = selection against MyD88, rank before grouping
[11] = P3_MyD88: rank by count after grouping
[12] = P3_MyD88: rank by count before grouping

T1 sequence (Q99836 148-296): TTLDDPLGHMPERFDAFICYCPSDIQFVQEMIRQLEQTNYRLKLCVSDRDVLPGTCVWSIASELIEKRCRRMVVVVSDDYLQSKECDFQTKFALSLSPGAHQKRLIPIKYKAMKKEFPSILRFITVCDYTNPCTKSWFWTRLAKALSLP

Sequence: YASYDDFWDRLIRMIE
- P8_MyD88 Rank (after) [1]: 248
- P8_MyD88 Rank (before) [2]: 439

Sequence: YTALTNMSFHTFRDNY
- P3_MyD88 Rank (after) [3]: 677
- P3_MyD88 Rank (before) [4]: 1653

Sequence: KEPERYQFAIPERDFP
- P3_MyD88 Rank (after) [9]: 540
- P3_MyD88 Rank (before) [10]: 3681

Sequence: DYASSWWALEEMAKIM
- Rank (after) [5]: 177
- Rank (before) [6]: 202

Sequence: NNLFNELVSKNIRTLM
- P3_MyD88 Rank (after) [1]: 237
- P3_MyD88 Rank (before) [2]: 3559

Sequence: YASSSWALDELLKILYANETM
- Rank (after) [5]: 190
- Rank (before) [6]: 277

Sequence: NELVHEISKKMKIFATI
- Rank (after) [11]: 398
- Rank (before) [12]: 3443

Sequence: SSFREGLWRLVYLSKK
- P3_MyD88 Rank (after) [9]: 538
- P3_MyD88 Rank (before) [10]: 3160

Sequence: FFSGFRELEDFISKLW
- Rank (after) [5]: 105
- Rank (before) [6]: 108
- Population: 0.02%

Sequence: LKWGSVFLEQTALCD
- P3_MyD88 Rank (after) [1]: 222
- P3_MyD88 Rank (before) [2]: 2409

Sequence: KQWRNALTAEANLSGW
- P3_MyD88 Rank (after) [9]: 557
- P3_MyD88 Rank (before) [10]: 3552

Sequence: DPQDLDGCYERLVSLF
- Rank (after) [5]: 393
- Rank (before) [6]: 2837

Sequence: HFAFSSWALDELANIL
- P8_MyD88 Rank (after) [1]: 282
- P8_MyD88 Rank (before) [2]: 612

Sequence: YASYDDNDYYWVTHVLLRHM
- Population: 0.00732%

Sequence: YLKWGYPWFWSKLRYAM
- Rank (after) [11]: 110
- Rank (before) [12]: 575

Sequence: AWVWEYLLPNLVGPAG
- P8_MyD88 Rank (after) [7]: 668
- P8_MyD88 Rank (before) [8]: 2317

Sequence: KEVKGWRDALTTVASL
- P3_MyD88 Rank (after) [1]: 252
- P3_MyD88 Rank (before) [2]: 3659

Sequence: DLQDVGWFLSKLSQHI
- Rank (after) [5]: 172
- Rank (before) [6]: 203

Sequence: LKAESCRQALEKSGKR
- P3_MyD88 Rank (after) [7]: 631
- P3_MyD88 Rank (before) [8]: 2533

Sequence: ELDFSHFWLFDGDAGEEP
- P8_MyD88 Rank (after) [1]: 229
- P8_MyD88 Rank (before) [2]: 476

Sequence: DPQDLDWIYERLVCLF
- P8_MyD88 Rank (after) [3]: 732
- P8_MyD88 Rank (before) [4]: 2830

Sequence: AVDKETDKIQTPLKAQ
- Rank (after) [11]: 390
- Rank (before) [12]: 1919

Sequence: LKWGDPYFWSKLLYSM
- P3_MyD88 Rank (after) [1]: 247
- P3_MyD88 Rank (before) [2]: 2423

Sequence: QSAWALNQLLQIIDWH
- P8_MyD88 Rank (after) [1]: 196
- P8_MyD88 Rank (before) [2]: 269

Sequence: LGYDWIVWAYFVGIED
- Rank (after) (P8_MyD88: rank by NGS read count after grouping): 894
- Rank (before) (P8_MyD88: rank by NGS read count before grouping): 3219

Sequence: NQWRNALTEAAHLSGW
- P3_MyD88 Rank (after) [7]: 663
- P3_MyD88 Rank (before) [8]: 3520

Sequence: SENYATSPWALMNWC
- P3_MyD88 Rank (after) [7]: 655
- P3_MyD88 Rank (before) [8]: 2985

Sequence: LGYHWVDWEYCVGIED
- Rank (after) [5]: 479
- Rank (before) [6]: 3233

Continued, values first:

- Rank (after) [5]: 157
- Rank (before) [6]: 173
- Population: 0.00809%
Sequence: ELWVLRYLLPTLEEQQ

- P8_MyD88 Rank (after) [7]: 621
- P8_MyD88 Rank (before) [8]: 2497
Sequence: DSQDLDWLYERLVSLL

- P8_MyD88 Rank (after) [1]: 192
- P8_MyD88 Rank (before) [2]: 247
Sequence: ENYAFSSWALGELLHI

- P8_MyD88 Rank (after) [9]: 555
- P8_MyD88 Rank (before) [10]: 1569
Sequence: WDFCEQYGTVLGSSVL

- Rank (after) [11]: 189
- Rank (before) [12]: 1615
Sequence: YHPLDLPRGKAIKPEILG

- Rank (after) [5]: 418
- Rank (before) [6]: 1762
Sequence: YAASPWWFDELVKTVR

- P3_MyD88 Rank (after) [1]: 279
- P3_MyD88 Rank (before) [2]: 3225
Sequence: SSFREALWRLLGLSEK

- P8_MyD88 Rank (after) [3]: 759
- P8_MyD88 Rank (before) [4]: 3018
Sequence: DPQELQWIYERLVSLF

- P3_MyD88 Rank (after) [9]: 513
- P3_MyD88 Rank (before) [10]: 2316
Sequence: LVAHRMSKKMKNVATI

- P8_MyD88 Rank (after) [1]: 219
- P8_MyD88 Rank (before) [2]: 355
Sequence: DSLFWDRLLYSLHVT

- Rank (after) [5]: 453
- Rank (before) [6]: 2884
Sequence: DPQDLEWFYERLVSLIP

- P3_MyD88 Rank (after) [9]: 495
- P3_MyD88 Rank (before) [10]: 3071
Sequence: SEMRVVEDGSVSPLEM

- Rank (after) [5]: 450
- Rank (before) [6]: 1113
Sequence: DPQDLEWFYERLFSR

- P3_MyD88 Rank (after) [7]: 650
- P3_MyD88 Rank (before) [8]: 2595
Sequence: RISAFHQQLVIALEAQ

- P3_MyD88 Rank (after) [7]: 619
- P3_MyD88 Rank (before) [8]: 2151
Sequence: EWIREQLRPALKERMT

- Rank (after) [5]: 152
- Rank (before) [6]: 164
- Population: 0.00886%
Sequence: DWLPGRTLFENLWASV

- P8_MyD88 Rank (after) [9]: 513
- P8_MyD88 Rank (before) [10]: 2472
Sequence: DWVWEHFVGIEDHIK

- P3_MyD88 Rank (after) [3]: 693
- P3_MyD88 Rank (before) [4]: 3400
Sequence: NELVQVWSSKANSLVR

- P8_MyD88 Rank (after) [3]: 733
- P8_MyD88 Rank (before) [4]: 2791
Sequence: DPQDLDWFYERRVCLF

- P8_MyD88 Rank (after) [7]: 590
- P8_MyD88 Rank (before) [8]: 3565
Sequence: QDLGWFYERLVSLF

- P8_MyD88 Rank (after) [9]: 529
- P8_MyD88 Rank (before) [10]: 1611
Sequence: WDFASNMEQFWDRLIRMIE
